Source: BindingDB's records for doi:10.1016/j.bmcl.2012.06.068 (Chulalongkorn University, 2012)
pKi: −log10 of the molar value.

Experiments:
[1] = Non-competitive inhibition of rat intestinal maltase using maltose as substrate assessed as dissociation of enzyme-substrate-inhibitor complex at 0.1 to 1 mg/ml by secondary plot analysis
[2] = Competitive inhibition of rat intestinal maltase using maltose as substrate assessed as dissociation of enzyme-inhibitor complex at 0.1 to 1 mg/ml by Dixon plot analysis

pKi [1]: 2.87 | pKi [2]: 3.54
SMILES: COc1cc([C@@H]2OC[C@@H]3[C@H]2CO[C@H]3c2ccc(O)c(OC)c2)ccc1O [4-[(1S,3aR,4S,6aR)-4-(4-hydroxy-3-methoxyphenyl)tetrahydro-1H,3H-furo[3,4-c]furan-1-yl]-2-methoxyphenol]
